Measured values: patent publication US12540120B2, “Herbicidal compounds” (SYNGENTA CROP PROTECTION AG, priority 2019, dated 2026)

Legend:
Assay type in all cases: in vivo
[1] = test system: Amaranthus retoflexus (AMARE); test: B2 Post-Emergence Efficacy—Test 2; conditions: post-emergence application, 250 g/ha, evaluated after 13 days (Test 2)
Method in brief: (§1)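 Pot-grown plants, sown in standard soil and raised 8 days in a glasshouse (24/16 °C day/night, 14 h light, 65% humidity), were sprayed post-emergence at 250 g/ha from acetone/water (50:50) with 0.5% Tween 20. Percentage damage was scored 13 days later on a five-point scale (5=80-100%; 1=0-19%).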

[2] = test system: Echinochloa crus-galli (ECHCG); test: B2 Post-Emergence Efficacy—Test 2; conditions: post-emergence application, 250 g/ha, evaluated after 13 days (Test 2)
Method in brief: as §1

[3] = test system: Ipomoea hederacea (IPOHE); test: B2 Post-Emergence Efficacy—Test 2; conditions: post-emergence application, 250 g/ha, evaluated after 13 days (Test 2)
Method in brief: as §1

Lolium perenne (LOLPE) [4] = test: B2 Post-Emergence Efficacy—Test 2; conditions: post-emergence application, 250 g/ha, evaluated after 13 days (Test 2)
Method in brief: as §1

Setaria faberi (SETFA) [5] = test: B2 Post-Emergence Efficacy—Test 2; conditions: post-emergence application, 250 g/ha, evaluated after 13 days (Test 2)
Method in brief: as §1

Solanum nigrum (SOLNI) [6] = test: B2 Post-Emergence Efficacy—Test 2; conditions: post-emergence application, 250 g/ha, evaluated after 13 days (Test 2)
Method in brief: as §1

[7] = test system: Amaranthus retoflexus (AMARE); test: B5 Pre-Emergence Efficacy—Test 2; conditions: 250 g/ha, evaluated after 13 days
Method in brief: (§2)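 Pre-emergence spray, 250 g/ha, acetone/water 50:50 + 0.5% Tween 20, applied 1 day post-sowing. Glasshouse 24/16 °C, 14 h light, 65% RH. Damage read at 13 d; 5-point scale (5=80-100%, 1=0-19%).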

Solanum nigrum (SOLNI) [8] = test: B5 Pre-Emergence Efficacy—Test 2; conditions: 250 g/ha, evaluated after 13 days
Method in brief: as §2

[9] = test system: Echinochloa crus-galli (ECHCG); test: B5 Pre-Emergence Efficacy—Test 2; set-up: key: 5-point scale: 5=80-100%, 4=60-79%, 3=40-59%, 2=20-39%, 1=0-19% damage; conditions: 250 g/ha, evaluated after 13 days
Method in brief: as §2

[10] = test system: Ipomoea hederacea (IPOHE); test: B5 Pre-Emergence Efficacy—Test 2; set-up: key: 5-point scale: 5=80-100%, 4=60-79%, 3=40-59%, 2=20-39%, 1=0-19% damage; conditions: 250 g/ha, evaluated after 13 days
Method in brief: as §2

Lolium perenne (LOLPE) [11] = test: B5 Pre-Emergence Efficacy—Test 2; set-up: key: 5-point scale: 5=80-100%, 4=60-79%, 3=40-59%, 2=20-39%, 1=0-19% damage; conditions: 250 g/ha, evaluated after 13 days
Method in brief: as §2

Setaria faberi (SETFA) [12] = test: B5 Pre-Emergence Efficacy—Test 2; set-up: key: 5-point scale: 5=80-100%, 4=60-79%, 3=40-59%, 2=20-39%, 1=0-19% damage; conditions: 250 g/ha, evaluated after 13 days
Method in brief: as §2

[13] = test system: Abutilon theophrasti (ABUTH); test: B3 Post-Emergence Efficacy—Test 3; conditions: post-emergence application, 250 g/ha, evaluated after 13 days (Test 3)
Method: (§3) B3 Post-Emergence Efficacy—Test 3 Seeds of a variety of test species are sown in standard soil in pots:—Amaranthus retoflexus (AMARE), Setaria faberi (SETFA), Echinochloa crus-galli (ECHCG), Ipomoea hederacea (IPOHE), Zea Mays (ZEAMX), Abutilon theophrasti (ABUTH). After 8 days cultivation (post-emergence) under controlled conditions in a glasshouse (at 24/16° C., day/night; 14 hours light; 65% humidity), the plants are sprayed with an aqueous spray solution derived from the formulation of the technical active ingredient in acetone/water (50:50) solution containing 0.5% Tween 20 (polyoxyethylene sorbitan monolaurate, CAS RN 9005-64-5). Compounds are applied at 250 g/ha. The test plants are then grown in a glasshouse under controlled conditions in a glasshouse (at 24/16° C., day/night; 14 hours light; 65% humidity) and watered twice daily. After 13 days, the test is evaluated for the percentage damage caused to the plant. The biological activities are assessed on a five point scale (5=80-100%; 4=60-79%; 3=40-59%; 2=20-39%; 1=0-19%). A blank value in the table is indicative that the compound was not tested on that species.

[14] = test system: Amaranthus retoflexus (AMARE); test: B3 Post-Emergence Efficacy—Test 3; conditions: post-emergence application, 250 g/ha, evaluated after 13 days (Test 3)
Method: as §3

[15] = test system: Ipomoea hederacea (IPOHE); test: B3 Post-Emergence Efficacy—Test 3; conditions: post-emergence application, 250 g/ha, evaluated after 13 days (Test 3)
Method: as §3

Setaria faberi (SETFA) [16] = test: B3 Post-Emergence Efficacy—Test 3; conditions: post-emergence application, 250 g/ha, evaluated after 13 days (Test 3)
Method: as §3

Zea Mays (ZEAMX) [17] = test: B3 Post-Emergence Efficacy—Test 3; conditions: post-emergence application, 250 g/ha, evaluated after 13 days (Test 3)
Method: as §3

[18] = test system: Abutilon theophrasti (ABUTH); test: B6 Pre-Emergence Efficacy—Test 3; conditions: pre-emergence application, 250 g/ha, evaluated after 13 days (Test 3)
Method: (§4) B6 Pre-Emergence Efficacy—Test 3 Seeds of a variety of test species were sown in standard soil in pots: Amaranthus retoflexus (AMARE), Setaria faberi (SETFA), Echinochloa crus-galli (ECHCG), Ipomoea hederacea (IPOHE), Zea Mays (ZEAMX), Abutilon theophrasti (ABUTH). After cultivation for one day (pre-emergence) under controlled conditions in a glasshouse (at 24/16° C., day/night; 14 hours light; 65% humidity), the plants were sprayed with an aqueous spray solution derived from the formulation of the technical active ingredient in acetone/water (50:50) solution containing 0.5% Tween 20 (polyoxyethelyene sorbitan monolaurate, CAS RN 9005-64-5). Compounds are applied at 250 g/ha. The test plants were then grown in a glasshouse under controlled conditions (at 24/16° C., day/night; 14 hours light; 65% humidity) and watered twice daily. After 13 days, the test is evaluated for the percentage damage caused to the plant. The biological activities are assessed on a five point scale (5=80-100%; 4=60-79%; 3=40-59%; 2=20-39%; 1=0-19%). A blank value in the table is indicative that the compound was not tested on that species.

[19] = test system: Amaranthus retoflexus (AMARE); test: B6 Pre-Emergence Efficacy—Test 3; conditions: pre-emergence application, 250 g/ha, evaluated after 13 days (Test 3)
Method: as §4

[20] = test system: Ipomoea hederacea (IPOHE); test: B6 Pre-Emergence Efficacy—Test 3; conditions: pre-emergence application, 250 g/ha, evaluated after 13 days (Test 3)
Method: as §4

Setaria faberi (SETFA) [21] = test: B6 Pre-Emergence Efficacy—Test 3; conditions: pre-emergence application, 250 g/ha, evaluated after 13 days (Test 3)
Method: as §4

Zea Mays (ZEAMX) [22] = test: B6 Pre-Emergence Efficacy—Test 3; conditions: pre-emergence application, 250 g/ha, evaluated after 13 days (Test 3)
Method: as §4

Row | Structure (SMILES) | percentage damage caused to the plant, five point scale, AMARE [1] | percentage damage caused to the plant, five point scale, ECHCG [2] | percentage damage caused to the plant, five point scale, IPOHE [3] | percentage damage caused to the plant, five point scale, LOLPE (Lolium perenne (LOLPE) [4]) | percentage damage caused to the plant, five point scale, SETFA (Setaria faberi (SETFA) [5]) | percentage damage caused to the plant, five point scale, SOLNI (Solanum nigrum (SOLNI) [6]) | Control of weed species after pre-emergence application, AMARE (percentage damage, five point scale) [7] | Control of weed species after pre-emergence application, SOLNI (percentage damage, five point scale) (Solanum nigrum (SOLNI) [8]) | Control of weed species after pre-emergence application, ECHCG (percentage damage, five point scale) [9] | Control of weed species after pre-emergence application, IPOHE (percentage damage, five point scale) [10] | Control of weed species after pre-emergence application, LOLPE (percentage damage, five point scale) (Lolium perenne (LOLPE) [11]) | Control of weed species after pre-emergence application, SETFA (percentage damage, five point scale) (Setaria faberi (SETFA) [12]) | also measured
1 | Cc1nn(C)c(=O)c(-c2c(F)ccc(Cl)c2CCc2cccc(C#N)c2)c1OC(=O)C(C)C [Compound A-3.030] | 5 (5=80-100%) | 2 (2=20-39%) | 5 (5=80-100%) | 4 (4=60-79%) | 5 (5=80-100%) | 5 (5=80-100%) | 5 (5=80-100%) | 5 (5=80-100%) | 4 (4=60-79%) | 3 (3=40-59%) | 4 (4=60-79%) | 5 (5=80-100%) | –
2 | CSc1ccc(CCc2c(Cl)ccc(F)c2-c2c(O)c(C)nn(C)c2=O)cc1 [Compound A-1.039, 4-[3-chloro-6-fluoro-2-[2-(4-methylsulfanylphenyl)ethyl]-phenyl]-5-hydroxy-2,6-dimethyl-pyridazin-3-one] | 5 (5=80-100%) | 5 (5=80-100%) | 5 (5=80-100%) | 5 (5=80-100%) | 5 (5=80-100%) | 5 (5=80-100%) | 5 (5=80-100%) | 5 (5=80-100%) | 5 (5=80-100%) | 3 (3=40-59%) | 4 (4=60-79%) | 5 (5=80-100%) | –
3 | Cc1nn(C)c(=O)c(-c2c(F)ccc(Cl)c2CCc2ccc(C(C)(C)C)cc2)c1O [Compound A-1.026] | 4 (4=60-79%) | 0 | 0 | 1 (1=0-19%) | 2 (2=20-39%) | 4 (4=60-79%) | 0 | 0 | 0 | 0 | 0 | 0 | –
4 | Cc1nn(C)c(=O)c(-c2c(F)ccc(Cl)c2CCc2ccc(S(N)(=O)=O)cc2)c1O [Compound A-1.391] | – | – | – | – | – | – | – | – | – | – | – | – | percentage damage caused to the plant, five point scale, ABUTH [13]: 2 (2=20-39%); percentage damage caused to the plant, five point scale, AMARE [14]: 4 (4=60-79%); percentage damage caused to the plant, five point scale, IPOHE [15]: 3 (3=40-59%); percentage damage caused to the plant, five point scale, SETFA (Setaria faberi (SETFA) [16]): 4 (4=60-79%); percentage damage caused to the plant, five point scale, ZEAMX (Zea Mays (ZEAMX) [17]): 1 (1=0-19%); percentage damage caused to the plant, five point scale, ABUTH [18]: 2 (2=20-39%); percentage damage caused to the plant, five point scale, AMARE [19]: 5 (5=80-100%); percentage damage caused to the plant, five point scale, IPOHE [20]: 2 (2=20-39%); percentage damage caused to the plant, five point scale, SETFA (Setaria faberi (SETFA) [21]): 5 (5=80-100%); percentage damage caused to the plant, five point scale, ZEAMX (Zea Mays (ZEAMX) [22]): 0
